Patent US20150025077A1 (COYOTE PHARMACEUTICALS, INC., priority 2012, published 2015)

Tested on: HSP70
Experiment: HSP70 levels in Neuro 2a cells, ELISA
Assay type: cell-based, mouse
Settings: 100 nM, 48 hrs compound then 24 hrs GGTI-298
Procedure: Mouse neuroblastoma 2a cells were cultured in DMEM with 10% FBS for 24 hrs. […] After 24 hrs cells were harvested and lysates were prepared and analyzed by ELISA for HSP70. Compound ID numbers in table refer to structures in Table 1 and Table 2.

Row | Compound | HSP70 level, ELISA signal (absence of compounds normalized as 1.00)
1 | CC(C)=CCC/C(C)=C/CC/C(C)=C/c1ncc(C)o1 [Compound 15, 5-methyl-2-((1E,5E)-2,6,10-trimethylundeca-1,5,9-trien-1-yl)oxazole] | 1.08
2 | CC(C)=CCC/C(C)=C/CC/C(C)=C/CC/C(C)=C/CN(C)C1CCCCC1 [Compound 17a, N-Cyclohexyl N-Methyl-2E,6E,10E-Geranylgeranyl amine] | 1.09
3 | CC(C)=CCC/C(C)=C/CC/C(C)=C/CC/C(C)=C/CNCCCOC(C)C [Compound 17d] | 1.01
4 | CCNC(=O)OC(C)CC/C=C(\C)CC/C=C(\C)CCC=C(C)C (stereo not drawn) [Compound 20a, Ethyl 5E,9E-farnesyl prop-2-yl carbamate] | 0.91
5 | CC(C)=CCC/C(C)=C/CC/C(C)=C/CC/C(C)=C/C1=N[C@H](C)CO1 [Compound 27d, (R)-4-methyl-2-((1E,5E,9E)-2,6,10,14-tetramethylpentadeca-1,5,9,13-tetraen-1-yl)-4,5-dihydrooxazole] | 1.04
6 | CC(C)=CCC/C(C)=C/CC/C(C)=C/CC/C(C)=C/C1=N[C@H](CC(C)C)C(=O)O1 [Compound 37c, (R)-4-isobutyl-2-((1E,5E,9E)-2,6,10,14-tetramethylpentadeca-1,5,9,13-tetraen-1-yl)oxazol-5(4H)-one] | 0.99
7 | CC(C)=CCC/C(C)=C/CC/C(C)=C/CC/C(C)=C/COC(=S)Nc1cccnc1 [Compound 38a, O-((2E,6E,10E)-3,7,11,15-tetramethylhexadeca-2,6,10,14-tetraen-1-yl) pyridin-3-ylcarbamothioate] | 0.79
8 | CC(C)=CCC/C(C)=C/CC/C(C)=C/CC/C(C)=C/COC(=S)NCc1ccco1 [Compound 38b, O-((2E,6E,10E)-3,7,11,15-tetramethylhexadeca-2,6,10,14-tetraen-1-yl) (furan-2-ylmethyl)carbamothioate] | 1.04
9 | CC(C)=CCC/C(C)=C/CC/C(C)=C/CC/C(C)=C/COC(=O)Nc1ccncc1 [Compound 39, (2E,6E,10E)-3,7,11,15-tetramethylhexadeca-2,6,10,14-tetraen-1-yl pyridin-4-ylcarbamate] | 1.15
10 | CC(C)=CCC/C(C)=C/CC/C(C)=C/CC/C(C)=C/COC(=O)N1CCN(C)CC1 [Compound 40a] | 0.99
11 | CC(C)=CCC/C(C)=C/CC/C(C)=C/CC/C(C)=C/COC(=O)Nc1ccccn1 [Compound 40b, (2E,6E,10E)-3,7,11,15-tetramethylhexadeca-2,6,10,14-tetraen-1-yl pyridin-2-ylcarbamate] | 0.92
12 | CC(C)=CCC/C(C)=C/CC/C(C)=C/CC/C(C)=C/CCC(=O)C(C)(C)C [Compound 60] | 0.89
13 | CCC(=O)CC/C=C(\C)CC/C=C(\C)CC/C=C(\C)CCC=C(C)C [Compound 61] | 0.98
14 | CCOC(=O)/C=C/C=C(\C)CC/C=C(\C)CC/C=C(\C)CCC=C(C)C [Compound 65] | 0.90
15 | CCOC(=O)C(C/C=C(\C)CC/C=C(\C)CC/C=C(\C)CCC=C(C)C)C(=O)c1ccoc1 (stereo not drawn) [Compound 68] | 1.11
16 | CC(C)=CCC/C(C)=C/CC/C(C)=C/CC/C(C)=C/CCC(=O)c1ccoc1 [Compound 69] | 0.90
17 | CCCC(=O)C(C/C=C(\C)CC/C=C(\C)CC/C=C(\C)CCC=C(C)C)C(=O)OCC (stereo not drawn) [Compound 70] | 1.07
18 | CCOC(=O)C(C/C=C(\C)CC/C=C(\C)CC/C=C(\C)CCC=C(C)C)C(=O)C12CC3CC(CC(C3)C1)C2 (stereo not drawn) [Compound 71] | 1.03
19 | CCCC(=O)CC/C=C(\C)CC/C=C(\C)CC/C=C(\C)CCC=C(C)C [Compound 73] | 0.99
20 | CC(C)=CCC/C(C)=C/CC/C(C)=C/CC/C(C)=C/CCC(=O)C(C)C [Compound 74] | 1.08
21 | CCOC(=O)C1(C/C=C(\C)CC/C=C(\C)CC/C=C(\C)CCC=C(C)C)CCCCCC1=O (stereo not drawn) [Compound 76] | 0.75
22 | CCOC(=O)C(C/C=C(\C)CC/C=C(\C)CC/C=C(\C)CCC=C(C)C)C(=O)C(C)C (stereo not drawn) [Compound 77] | 1.03
23 | CCOC(=O)C(C)(C/C=C(\C)CC/C=C(\C)CC/C=C(\C)CCC=C(C)C)C(C)=O (stereo not drawn) [Compound 78] | 1.00
24 | CCOC(=O)C1(C/C=C(\C)CC/C=C(\C)CC/C=C(\C)CCC=C(C)C)CCCC1=O (stereo not drawn) [Compound 79] | 0.98

Same assay, conditions: 10uM, 48 hrs compound then 24 hrs GGTI-298

Row | Compound | HSP70 level, ELISA signal (absence of compounds normalized as 1.00)
25 | CC(C)=CCC/C(C)=C/CC/C(C)=C/CC/C(C)=C/c1ncc(C)o1 [Compound 16, 5-methyl-2-((1E,5E,9E)-2,6,10,14-tetramethylpentadeca-1,5,9,13-tetraen-1-yl)oxazole] | 0.89
26 | CC(C)=CCC/C(C)=C/CC/C(C)=C/CC/C(C)=C/CN(C)C1CCCCC1 [Compound 17a, N-Cyclohexyl N-Methyl-2E,6E,10E-Geranylgeranyl amine] | 1.22
27 | CCCCCN(C)C/C=C(\C)CC/C=C(\C)CC/C=C(\C)CCC=C(C)C [Compound 17b, N-Methyl-N-n-pentyl-2E,6E,10E-Geranylgeranyl amine] | 1.08
28 | CCCCCCCN(C)C/C=C(\C)CC/C=C(\C)CC/C=C(\C)CCC=C(C)C [Compound 17c, N-Heptyl-N-Methyl-2E,6E,10E-Geranylgeranyl amine] | 1.01
29 | CC(C)=CCC/C(C)=C/CC/C(C)=C/CC/C(C)=C/CNC12CC3CC(CC(C3)C1)C2 [Compound 17e, N-Adamantyl-2E,6E,10E-Geranylgeranyl amine] | 1.06
30 | CC(C)=CCC/C(C)=C/CC/C(C)=C/CC/C(C)=C/C1=N[C@@H](CC(C)C)CO1 [Compound 27c, (S)-4-isobutyl-2-((1E,5E,9E)-2,6,10,14-tetramethylpentadeca-1,5,9,13-tetraen-1-yl)-4,5-dihydrooxazole] | 0.95
31 | CC(C)=CCC/C(C)=C/CC/C(C)=C/CC/C(C)=C/C1=N[C@H](C)CO1 [Compound 27d, (R)-4-methyl-2-((1E,5E,9E)-2,6,10,14-tetramethylpentadeca-1,5,9,13-tetraen-1-yl)-4,5-dihydrooxazole] | 1.37
32 | CC(C)=CCC/C(C)=C/CC/C(C)=C/CC/C(C)=C/C1=N[C@H](C(C)C)CO1 [Compound 27e, (R)-4-isopropyl-2-((1E,5E,9E)-2,6,10,14-tetramethylpentadeca-1,5,9,13-tetraen-1-yl)-4,5-dihydrooxazole] | 1.11
33 | CC(C)=CCC/C(C)=C/CC/C(C)=C/CC/C(C)=C/C1=N[C@H](CC(C)C)CO1 [Compound 27f, (R)-4-isobutyl-2-((1E,5E,9E)-2,6,10,14-tetramethylpentadeca-1,5,9,13-tetraen-1-yl)-4,5-dihydrooxazole] | 0.91
34 | CC(C)=CCC/C(C)=C/CC/C(C)=C/CC/C(C)=C/c1nnc(-c2ccccc2)o1 [Compound 29a, 2-phenyl-5-((1E,5E,9E)-2,6,10,14-tetramethylpentadeca-1,5,9,13-tetraen-1-yl)-1,3,4-oxadiazole] | 1.22
35 | COc1ccc(-c2nnc(/C=C(\C)CC/C=C(\C)CC/C=C(\C)CCC=C(C)C)o2)cc1 [Compound 29c, 2-(4-methoxyphenyl)-5-((1E,5E,9E)-2,6,10,14-tetramethylpentadeca-1,5,9,13-tetraen-1-yl)-1,3,4-oxadiazole] | 1.06
36 | COc1ccc(-c2nnc(/C=C(\C)CC/C=C(\C)CC/C=C(\C)CCC=C(C)C)o2)cc1OC [Compound 29d, 2-(3,4-dimethoxyphenyl)-5-((1E,5E,9E)-2,6,10,14-tetramethylpentadeca-1,5,9,13-tetraen-1-yl)-1,3,4-oxadiazole] | 1.12
37 | CC(C)=CCC/C(C)=C/CC/C(C)=C/CC/C(C)=C/c1nnc(-c2cccnc2)o1 [Compound 29e, 2-(pyridin-3-yl)-5-((1E,5E,9E)-2,6,10,14-tetramethylpentadeca-1,5,9,13-tetraen-1-yl)-1,3,4-oxadiazole] | 1.10
38 | CC(C)=CCC/C(C)=C/CC/C(C)=C/CC/C(C)=C/c1nnc(-c2ccncc2)o1 [Compound 29f, 2-(pyridin-4-yl)-5-((1E,5E,9E)-2,6,10,14-tetramethylpentadeca-1,5,9,13-tetraen-1-yl)-1,3,4-oxadiazole] | 1.01
39 | CC(C)=CCC/C(C)=C/c1nc(-c2ccccc2)co1 [Compound 32, (E)-2-(2,6-dimethylhepta-1,5-dien-1-yl)-4-phenyloxazole] | 0.96
40 | CC(C)=CCC/C(C)=C/c1nc(-c2cccnc2)no1 [Compound 35a, (E)-5-(2,6-dimethylhepta-1,5-dien-1-yl)-3-(pyridin-3-yl)-1,2,4-oxadiazole] | 1.08
41 | CC(C)=CCC/C(C)=C/c1nc(-c2ccc(F)cc2)no1 [Compound 35b, (E)-5-(2,6-dimethylhepta-1,5-dien-1-yl)-3-(4-fluorophenyl)-1,2,4-oxadiazole] | 0.95
42 | CC(C)=CCC/C(C)=C/c1nc(-c2ccccc2)no1 [Compound 35c, (E)-5-(2,6-dimethylhepta-1,5-dien-1-yl)-3-phenyl-1,2,4-oxadiazole] | 1.04
43 | CC(C)=CCC/C(C)=C/c1nc(-c2ccncc2)no1 [Compound 35d, (E)-5-(2,6-dimethylhepta-1,5-dien-1-yl)-3-(pyridin-4-yl)-1,2,4-oxadiazole] | 1.05
44 | CC(C)=CCC/C(C)=C/CC/C(C)=C/CC/C(C)=C/C1=N[C@@H](C(C)C)C(=O)O1 [Compound 37b, (S)-4-isopropyl-2-((1E,5E,9E)-2,6,10,14-tetramethylpentadeca-1,5,9,13-tetraen-1-yl)oxazol-5(4H)-one] | 0.89
45 | CNC(=O)OC/C=C(\C)CC/C=C(\C)CCC=C(C)C [Compound 42] | 1.25
